PubChem BioAssay (NCI)
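All cell lines were grown in 96-well plates and treated with compound for 48 hours. GI50 = concentration required for 50% inhibition of growth. The concentration for full growth arrest is given as TGI.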

How the values were obtained:
Assay in all cases: growth of human tumour cells (NCI), 48 h
UO-31 renal = test system: UO-31 renal
MALME-3M melanoma = test system: MALME-3M melanoma
MDA-MB-231 breast = test system: MDA-MB-231 breast
UACC-257 melanoma = test system: UACC-257 melanoma
A498 renal = test system: A498 renal
HOP-62 NSCLC = test system: HOP-62 NSCLC
SW-620 colon = test system: SW-620 colon
SN12C renal = test system: SN12C renal
SF-295 CNS = test system: SF-295 CNS
NCI/ADR-RES ovarian = test system: NCI/ADR-RES ovarian

Compound | TGI (UO-31 renal) [µM] | TGI (MALME-3M melanoma) [µM] | TGI (MDA-MB-231 breast) [µM] | TGI (UACC-257 melanoma) [µM] | TGI (A498 renal) [µM] | TGI (HOP-62 NSCLC) [µM] | TGI (SW-620 colon) [µM] | TGI (SN12C renal) [µM] | TGI (SF-295 CNS) [µM] | TGI (NCI/ADR-RES ovarian) [µM] | GI50 (UO-31 renal) [µM] | GI50 (MDA-MB-231 breast) [µM] | GI50 (UACC-257 melanoma) [µM] | GI50 (A498 renal) [µM] | GI50 (NCI/ADR-RES ovarian) [µM] | GI50 (SW-620 colon) [µM] | GI50 (SN12C renal) [µM] | GI50 (SF-295 CNS) [µM]
CC(C)(C)OC(=O)N[C@H]1CC2(C=C(Cl)C(=O)C(Cl)=C2)OC1=O | 38.8 | 25.9 | 33.8 | 21.2 | > 9.94 | > 73.7 | 19.1 | 33.3 | 47.5 |  |  |  |  |  |  |  |  | 
C[Si](C)(C)C1(Sc2ccccc2)SCCCS1 | 39.8 | > 100 |  | > 100 | > 100 | 76.4 | > 100 | > 100 | > 100 |  |  |  |  |  |  |  |  | 
N#CC(C#N)=CNC(N)=S |  | > 100 | > 100 | > 100 | > 100 | > 100 | > 100 | > 100 | > 100 | > 100 |  |  |  |  |  |  |  | 
COc1ccc(S(=O)(=O)NNS(C)(=O)=O)cc1 | > 100 | > 100 |  | > 100 | > 100 | > 100 | > 100 | > 100 | > 100 |  |  |  |  |  |  |  |  | 
CCCCCCN(CCCCCC)C(=O)Cc1c2n(c3ccccc13)Cc1ccccc1-2 | > 100 | > 100 |  | > 100 |  | > 100 | > 100 | > 100 | > 100 |  |  |  |  |  |  |  |  | 
CC(=O)[C@@]12O[C@@H]1CC1C3CCC4=CC(O)CCC4(C)C3CCC12C (stereo partly specified) | > 100 |  | 26.8 | > 100 | 59.1 |  | > 100 | > 100 | 56.5 | > 100 | > 100 | 12.5 | > 100 | 2.04 | 20.4 | 39.5 | 81 | 12.2
Cc1ccc(NC(=O)c2cc3cc(N=Nc4ccccc4C(=O)O)ccc3oc2=O)cc1 | > 100 | > 100 |  | 59.4 |  | > 100 | > 100 | > 100 | > 100 |  |  |  |  |  |  |  |  | 
CCOC(=O)CC(=O)ON(C)C(C)=O | > 100 | > 100 |  | > 100 | > 100 | > 100 | > 100 | > 100 | > 100 |  |  |  |  |  |  |  |  | 
c1ccc(COc2cccc3ccc[n+](Cc4ccccc4)c23)cc1 | 75.2 | 19.9 |  | 6.34 | 97.8 | 50.8 | > 100 |  | 37.9 |  |  |  |  |  |  |  |  | 
C/C(=N\NC(=S)NC(CCC(=O)O)C(=O)O)c1ccccn1 (stereo unspecified) | > 100 | > 100 |  | > 100 | > 100 | > 100 | > 100 | > 100 | > 100 |  |  |  |  |  |  |  |  | 
CN(C)c1ccc(/C=C(\NC(=O)c2ccccc2)c2nc3ncncc3[nH]2)cc1 | > 100 | > 100 |  |  |  |  | > 100 | > 100 | > 100 |  |  |  |  |  |  |  |  | 
CC(C)=Cc1cc(C(=O)Nc2ccc(Cl)c(Cl)c2)nc(N)n1 | > 100 | > 100 |  | > 100 | > 100 | > 100 | > 100 | > 100 | > 100 |  |  |  |  |  |  |  |  | 
C#CC1(O)CCC2C3CCc4cc(Oc5nc(F)nc(-c6c7ccccc7c7sc8ccccc8n67)n5)ccc4C3CC[C@@]21C (stereo partly specified) | > 100 | > 100 |  | > 100 |  | > 100 | > 100 |  | > 100 |  |  |  |  |  |  |  |  | 
